Several values for one entry are separate records, joined by “and”; a condition that tells them apart may be missing. Equal values may be shown once.
Legend:
Type in all cases: biochemical
[1] = test system: Thielavia laccase (Ecostone LCC10); assay: Soluble indigo bleaching at two pH values, Thielavia laccase (Example 3)
Description: (§1) A saturated solution of indigo in N-methylpyrrolidone (NMP) was prepared by stirring indigo (30 mg) in NMP (10 ml) at room temperature for 5 hours. The NMP solution was diluted 10-fold into an aqueous buffer solution resulting in a blue solution. For example, dilution into 50 mM sodium acetate buffer at pH 5, or 50 mM sodium phosphate buffer at pH 7. Solutions were shaken well immediately before use.
(§2) The assay for the bleaching of the solubilized indigo substrate was performed in a 96-well microtitre plate whereby each well received the soluble indigo solution in 50 mM sodium acetate buffer at pH 5 (180 uL), laccase (10 ppm enzyme) and mediator solution (from a 20 mM stock solution in methanol). The total volume of each well was adjusted to 200 uL with deionzed water. A control containing laccase only was run in duplicate. The plate was sealed and incubated at 50° C. for 2 hours at 800 rpm on a heated agitator (Thermomixer, Eppendorf). Following this period, the plates were unsealed and a solution of ascorbic acid (20 uL of a 10% aqueous solution) added to each well in order to reduce the oxidized forms of the mediators. The extent of indigo bleaching was then assessed by determining the absorbance for each well at 600 nm using a microtitre plate reader. The lower the absorbance reading, the greater the extent of indigo bleaching.
(§3) Laccases derived from Myceliophtora (Denilite® II, Novozymes, Bagsvaerd, Denmark), Thielavia (Ecostone LCC10, AB enzymes, Darmstadt, Germany) and Cerrena sp. were assessed for their ability to bleach solubilized indigo in conjunction with low molecular weight mediators at two pH values.
(§4) Bleaching of solubilized indigo in 96-well microtitre plates was performed as described in Example 1, using 3 different laccases at pH values of 5 and 7.

[2] = test system: Myceliophtora laccase (Denilite II); assay: Soluble indigo bleaching at two pH values, Myceliophtora laccase (Example 3)
Description: as §1, §2, §3, §4

Cerrena sp. laccase = assay: Soluble indigo bleaching at two pH values, Cerrena sp. laccase (Example 3)
Description: as §1, §2, §3, §4

C. unicolor laccase = assay: Bleaching of denim swatches with C. unicolor laccase (Example 4); design: key to ΔL Denim swatch Frontside / Δb Denim swatch Frontside / ΔL Denim swatch Backside / Δb Denim swatch Backside / Δa Denim swatch Backside / Δa Denim swatch Frontside: difference between initial and final CIE L*a*b* values; key to ΔE (total color difference) Denim swatch Backside / ΔE (total color difference) Denim swatch Frontside: ΔE = (ΔL²+Δa²+Δb²)^1/2 from CIE L*a*b* before/after bleaching
Description: Denim legs (made out of sulfur bottom/indigo dyed denim fabric from Cone Mill, style number 1662P) were pretreated with IndiAge® 2XL at a dose of 1 gram per liter in a 50 lb lab scale tumbling washer. The liquor ratio was 6 to 1 (5 kg substrate in 30 liters of water) and the treatment was performed at 55° C. at pH 4.5 for 1 hour. A warm rinse followed the cellulase treatment, after which the fabric was dried in a tumble dryer. A punch press was used to cut ⅝ inch denim disks from IndiAge® 2XL pretreated denim legs. Each denim disk is pre read with a Chroma Meter CR-200 by Minolta in order to determine the CIE L*a*b* values of both the front and backside of the fabric disk.
One denim disk is placed in each well of two duplicate 12 well micro-titer plates. Each well received C. unicolor laccase (20 uL of 1/20 dilution, approx. 20 ppm), mediator (200, 100, 50 or 20 uL of a 20 mM stock solution in methanol) and 50 mM potassium phosphate buffer, pH 6 for a total volume of 2 mL/well. The mediators were methyl syringate (MS), 4-cyano-2,6-dimethoxyphenol (SN) and 3,4,5-trimethoxyphenol (TMP). The plates were sealed and incubated at 50° C. for 2 hours at 150 rpm in a standard incubator. Following this period, the swatches were removed from the plates and carefully placed on a filter paper in a Buchner funnel and washed with copious amounts of water, followed by drying of the residual water under high vacuum overnight. The swatches were then re-read with the chromometer in order to determine the CIE L*a*b* values of both the front and backside of the disk following bleaching. The total color difference (ΔE) is calculated from the difference between the initial and final CIE L*a*b* values according to the formula ΔE=(ΔL^2+Δa^2+Δb^2)^1/2 The total color differences (ΔE) as a function of mediator concentration are plotted in FIGS. 5 and 6.

[3] = test system: Thielavia sp. laccase (Ecostone LCC10); assay: Bleaching of solubilized indigo, Thielavia sp. laccase with mediators (Example 2); conditions: for ΔA600 (change in absorbance at 600 nm relative to control): laccase 10 ppm, pH 5, 50° C., 2 hours, n = 2
Description: An assay for the bleaching of the solubilized indigo substrate by laccase/mediator combinations was performed in a 96-well microtitre plate as follows
as §1, §2

[4] = mediator 200 uM, laccase 20 ppm, pH 6, 50° C., 2 hours
[5] = mediator 500 uM, laccase 20 ppm, pH 6, 50° C., 2 hours
[6] = mediator 1000 uM, laccase 20 ppm, pH 6, 50° C., 2 hours
[7] = mediator 50 mM Concentration (head)
[8] = mediator 500 mM Concentration (head)
[9] = lower mediator concentration of 50 uM

SMILES | ΔA600 Thielavia ([1]; pH 5, mediator 250 uM) | ΔA600 Thielavia ([1]; pH 7, mediator 250 uM) | ΔA600 Myceliophtora ([2]; pH 5, mediator 250 uM) | ΔA600 Myceliophtora ([2]; pH 7, mediator 250 uM) | ΔA600 Cerrena (Cerrena sp. laccase; pH 5, mediator 250 uM) | ΔA600 Cerrena (Cerrena sp. laccase; pH 7, mediator 250 uM) | ΔA600 (change in absorbance at 600 nm relative to control) [3, 7] | ΔA600 (change in absorbance at 600 nm relative to control) [3, 8] | other results
COc1cc(C=CC(=O)O)cc(OC)c1O (stereo in doubt) [Sinapinic acid, sinapinic acid] | 0.068 | 0.112 | 0.157 | 0.204 | 0.240 | 0.257 | – | – | –
COc1cc(O)cc(OC)c1OC [TMP, 3,4,5-trimethoxyphenol, reference compound] | – | – | – | – | – | – | – | – | effectiveness as mediator for denim swatch bleaching (C. unicolor laccase; C. unicolor laccase 20 ppm, 200-2000 uM mediator): not an effective mediator; ΔE (total color difference) Denim swatch Backside (C. unicolor laccase; [4]): 0.35 and 0.57; ΔE (total color difference) Denim swatch Frontside (C. unicolor laccase; [4]): 0.96 and 0.77; Δa Denim swatch Frontside (C. unicolor laccase; [4]): 0.29 and 0.33; ΔE (total color difference) Denim swatch Backside (C. unicolor laccase; [5]): 0.51 and 0.30; ΔE (total color difference) Denim swatch Frontside (C. unicolor laccase; [5]): 0.64 and 0.63; ΔL Denim swatch Frontside (C. unicolor laccase; [5]): −0.61; ΔE (total color difference) Denim swatch Backside (C. unicolor laccase; [6]): 0.45 and 0.51; ΔE (total color difference) Denim swatch Frontside (C. unicolor laccase; [6]): 0.51 and 0.46; Δa Denim swatch Backside (C. unicolor laccase; [6]): 0.22 and 0.12; ΔE (total color difference) Denim swatch Backside (C. unicolor laccase; mediator 2000 uM, laccase 20 ppm, pH 6, 50° C., 2 hours): 0.34
CNC(=O)c1cc(OC)c(O)c(OC)c1 [MSA, 4-(N-methylcarboxamido)-2,6-dimethoxyphenol] | – | – | – | – | – | – | 0.103 | 0.181 | –
O=C(O)CCCN1c2ccccc2Sc2ccccc21 [PTP, 10-(carboxypropyl)-phenothiazine] | – | – | – | – | – | – | 0.132 | 0.044 | –
COc1cc(C(=O)O)cc(OC)c1O [Syringic acid, syringic acid] | – | – | – | – | – | – | 0.005 | 0.024 | effectiveness as mediator for indigo bleaching [3, 9]: no more effectively than the control condition
CCn1c(=NN=c2sc3cc(S(=O)(=O)O)ccc3n2CC)sc2cc(S(=O)(=O)O)ccc21 [ABTS] | 0.234 | 0.145 | 0.267 | 0.155 | 0.329 | 0.215 | 0.174 | 0.235 | effectiveness as mediator for indigo bleaching [3, 9]: most effective mediator; effectiveness as mediator for indigo bleaching ([3]; mediator concentration of 500 uM): most effective mediator
COC(=O)c1cc(OC)c(OC(C)=O)c(OC)c1 [AMS, methyl 4-acetyl syringate] | 0.100 | 0.087 | 0.117 | 0.078 | 0.028 | 0.077 | – | – | –
COc1cc(C=O)cc(OC)c1O [Syringaldehyde, syringaldehyde] | – | – | – | – | – | – | 0.092 | 0.132 | –
